Test systems include RXF 393; SNB-75; KM12; 786-0; MOLT-4; UACC-62; HT-29; BT-549; NCI-H226; IGROV-1; NCI-H460; NCI-H23; U-251; A498; SR; HOP-62; NCI/ADR-RES; ACHN; SK-MEL-2; RPMI-8226.
Holding throughout (assay): NCI-60 cell line screen, 48 h

The structures appear in SMILES notation.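 Step 1: Grow cells in 96-well plates. Step 2: Expose to compound for 48 hours at 5 concentrations. Step 3: Interpolate endpoints linearly; if unreached, use highest concentration. Here, GI50 denotes the concentration required for 50% inhibition of growth.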 Active and inactive are the calls of the source. Rule as the data show it: active = GI50 up to about 1.1 µM and inactive = higher.

Consider `O=[As](O)(O)c1ccc2nc3cc([As](=O)(O)O)ccc3nc2c1`, for which the GI50 in the assay with RXF 393, with SNB-75, with KM12, with 786-0, with MOLT-4 and in the assay on UACC-62 was > 100 µM (inactive) throughout. For the same compound, the GI50 in the assay on HT-29, in the assay on BT-549, in the assay on NCI-H226, in the assay with IGROV-1, with NCI-H460 and with NCI-H23 was > 100 µM (inactive) throughout. Further, the GI50 in the assay with U-251, in the assay on A498, in the assay with SR, in the assay with HOP-62, in the assay with NCI/ADR-RES and with ACHN was > 100 µM (inactive) each time. For the same compound, in the assay with SK-MEL-2, the GI50 was > 100 µM (inactive).
As to `CCOC(=O)c1cc2cc([N+](=O)[O-])ccc2oc1=O`, the GI50 with RPMI-8226, in the assay on RXF 393, in the assay with SNB-75, in the assay with KM12, with 786-0 and in the assay on MOLT-4 was > 100 µM (inactive) each time. The GI50 in the assay with UACC-62 was 24.3 µM (inactive); in the assay with HT-29, > 100 µM (inactive); in the assay on BT-549, > 100 µM (inactive); with NCI-H226, > 100 µM (inactive); in the assay on IGROV-1, > 100 µM (inactive); in the assay on NCI-H460, 69.5 µM (inactive). The GI50 in the assay with NCI-H23, in the assay on U-251, in the assay on A498, in the assay on SR, with HOP-62 and in the assay on NCI/ADR-RES was > 100 µM (inactive) in each case. For the same compound, the results for the GI50 with ACHN and in the assay with SK-MEL-2 were > 100 µM (inactive) and > 10 µM (inactive), respectively.
For `COc1oc(C(=O)NC2CCCCC2)c(-c2ccc(Cl)cc2)c1S(=O)(=O)c1ccccc1`, the GI50 with RPMI-8226 was 2.15 µM (inactive); in the assay with RXF 393 it was 3.02 µM (inactive); in the assay on SNB-75, 20.8 µM (inactive); in the assay on KM12, 5.55 µM (inactive); with 786-0, 1.99 µM (inactive); in the assay with MOLT-4, 6.79 µM (inactive). In addition, the GI50 in the assay with UACC-62 is 17.1 µM (inactive); in the assay with HT-29 it was 2.26 µM (inactive); in the assay with BT-549, 5.55 µM (inactive); in the assay with NCI-H226 it was 52.2 µM (inactive); in the assay with IGROV-1 it was 1.82 µM (inactive); in the assay with NCI-H460 it was 10.5 µM (inactive). Also, the GI50 was 2.64 µM (inactive) in the assay on U-251; 2.15 µM (inactive) with A498; 5.51 µM (inactive) in the assay with SR; 6.27 µM (inactive) with HOP-62; 2.76 µM (inactive) in the assay with NCI/ADR-RES; 31 µM (inactive) in the assay on ACHN. Besides, the GI50 in the assay on SK-MEL-2 is 13.4 µM (inactive).
For the compound `C=C1CC(O)C2C(=C)C(=O)OC2C2C(C)C(=O)CC12` (stereo not given), the GI50 in the assay on RPMI-8226 was 14 µM (inactive); in the assay on RXF 393 it was 4.73 µM (inactive); in the assay with SNB-75 it was 15.1 µM (inactive); in the assay with KM12 it was 24.7 µM (inactive); with 786-0 it was > 10 µM (inactive); in the assay with MOLT-4, 7.03 µM (inactive). The GI50 in the assay on UACC-62 was 15.3 µM (inactive); with HT-29, 18.7 µM (inactive); in the assay with BT-549, 7.87 µM (inactive); in the assay on IGROV-1, 18.4 µM (inactive); with NCI-H460, 24.5 µM (inactive); in the assay on NCI-H23, 16 µM (inactive). Further, the GI50 with U-251 is 23 µM (inactive); in the assay on A498 it was 29.4 µM (inactive); with SR it was 9.14 µM (inactive); with HOP-62, 19.8 µM (inactive); in the assay on NCI/ADR-RES it was 18.4 µM (inactive); in the assay with ACHN it was 5.32 µM (inactive). The GI50 in the assay on SK-MEL-2 is 18.9 µM (inactive).
For `Cc1c(C#N)c2nnn(-c3cccc(Cl)c3)c(=O)n2c1-c1ccccc1`, the GI50 was 0.637 µM (active) in the assay on RPMI-8226; 1.85 µM (inactive) in the assay with RXF 393; 1.76 µM (inactive) in the assay on SNB-75; 0.895 µM (active) in the assay on KM12; 2.99 µM (inactive) with 786-0; 4.43 µM (inactive) in the assay with UACC-62. The GI50 was 1.28 µM (inactive) in the assay with HT-29; 18.1 µM (inactive) in the assay with BT-549; 2.25 µM (inactive) in the assay on NCI-H226; 2.54 µM (inactive) in the assay with IGROV-1; 3.15 µM (inactive) in the assay on NCI-H460; 8.77 µM (inactive) in the assay on NCI-H23. For the same compound, the GI50 in the assay on U-251 is 2.33 µM (inactive); in the assay with A498, 2.36 µM (inactive); with SR it was 0.301 µM (active); in the assay on HOP-62 it was 0.891 µM (active); in the assay on NCI/ADR-RES, 3.1 µM (inactive); with ACHN, 6.4 µM (inactive). Also, in the assay on SK-MEL-2, the GI50 was 1.27 µM (inactive).
As to `C[C@@H](NC(=O)Cn1c(Cl)nc2ccccc21)c1ccccc1`, the GI50 in the assay with RPMI-8226, in the assay with RXF 393, in the assay on SNB-75, with KM12, in the assay on 786-0 and with MOLT-4 was > 100 µM (inactive) throughout. Further, the GI50 in the assay with UACC-62 is > 100 µM (inactive); in the assay on HT-29, > 100 µM (inactive); in the assay with BT-549, > 100 µM (inactive); in the assay with NCI-H226, > 100 µM (inactive); in the assay on NCI-H460 it was > 100 µM (inactive); in the assay with NCI-H23 it was 46.2 µM (inactive). The GI50 in the assay on U-251 was > 100 µM (inactive); in the assay with A498 it was > 100 µM (inactive); in the assay on SR, > 100 µM (inactive); in the assay with HOP-62, > 100 µM (inactive); with NCI/ADR-RES it was 33 µM (inactive); in the assay with ACHN, > 100 µM (inactive). Moreover, the GI50 in the assay with SK-MEL-2 was > 100 µM (inactive).
`O=C1Nc2ccc(Br)cc2/C1=N/c1ccc2c(c1)OCO2`: the GI50 in the assay with RPMI-8226 was 18.5 µM (inactive); in the assay on RXF 393 it was 20.3 µM (inactive); with SNB-75, 31.6 µM (inactive); with KM12, 17.6 µM (inactive); with 786-0 it was 21.6 µM (inactive); in the assay with MOLT-4, 16.6 µM (inactive). In addition, the GI50 is 15.7 µM (inactive) in the assay with UACC-62; 17.4 µM (inactive) in the assay on HT-29; 19.8 µM (inactive) in the assay on BT-549; 24.3 µM (inactive) in the assay with NCI-H226; 27.4 µM (inactive) in the assay on IGROV-1; 22.5 µM (inactive) in the assay on NCI-H460. Moreover, the GI50 in the assay with NCI-H23 was 37.2 µM (inactive); in the assay with U-251, 12.7 µM (inactive); in the assay with A498, 30.6 µM (inactive); in the assay on SR, 15.1 µM (inactive); in the assay with HOP-62, 20.2 µM (inactive); with NCI/ADR-RES it was 27.5 µM (inactive). The GI50 in the assay with ACHN was 23.7 µM (inactive); in the assay with SK-MEL-2, 17.7 µM (inactive).
As for `CCOC(=O)c1nc2cc(C(F)(F)F)ccc2nc1Nc1ccc(OC)c(OC)c1`, the GI50 in the assay with RPMI-8226 was > 100 µM (inactive); in the assay on RXF 393, > 100 µM (inactive); in the assay on SNB-75, 50.9 µM (inactive); in the assay with KM12 it was > 100 µM (inactive); with 786-0, > 100 µM (inactive); in the assay on MOLT-4, > 100 µM (inactive). In addition, the GI50 in the assay with UACC-62, with HT-29, in the assay on BT-549, in the assay on IGROV-1, with NCI-H460 and with NCI-H23 was > 100 µM (inactive) each time. Further, the GI50 in the assay with A498 was > 100 µM (inactive); with SR, > 100 µM (inactive); in the assay on HOP-62 it was 32 µM (inactive); in the assay with NCI/ADR-RES, > 100 µM (inactive); in the assay on ACHN it was > 100 µM (inactive).
On to `CC(C)(Cc1ccccc1)Cc1cc(O)ccc1O`, for which the GI50 was 13.6 µM (inactive) in the assay on RXF 393; 23 µM (inactive) in the assay on SNB-75; 15 µM (inactive) with KM12; 12.7 µM (inactive) with 786-0; 14.8 µM (inactive) in the assay with MOLT-4; 23.7 µM (inactive) in the assay with UACC-62. The GI50 in the assay on HT-29 is 20.6 µM (inactive); with BT-549, 16.3 µM (inactive); in the assay on NCI-H226 it was 33.8 µM (inactive); in the assay with IGROV-1, 26.9 µM (inactive); in the assay on NCI-H460, 16.6 µM (inactive); in the assay on NCI-H23, 14.6 µM (inactive). The GI50 with U-251 is 15.2 µM (inactive); with A498, 22 µM (inactive); in the assay with SR it was 4.63 µM (inactive); with HOP-62 it was 30.1 µM (inactive); in the assay with NCI/ADR-RES, 16.4 µM (inactive); in the assay with ACHN, 20.8 µM (inactive).
As for `Cc1nnc([C@@]2(C)CC[C@H]3[C@@H](CC=C4C[C@@H](O)CC[C@@]43C)[C@@H]2CC#N)o1`, the GI50 in the assay with RPMI-8226 was 97.3 µM (inactive); in the assay with RXF 393, > 100 µM (inactive); in the assay with SNB-75 it was 27 µM (inactive); in the assay on KM12 it was > 100 µM (inactive); in the assay on 786-0, > 100 µM (inactive); with MOLT-4 it was > 100 µM (inactive). In addition, the GI50 with UACC-62, with HT-29, in the assay with BT-549, with NCI-H226, in the assay with NCI-H23 and in the assay with U-251 was > 100 µM (inactive) throughout. Besides, the GI50 with A498, in the assay with SR, in the assay with HOP-62, in the assay with NCI/ADR-RES, in the assay on ACHN and in the assay with SK-MEL-2 was > 100 µM (inactive) in each case.
For the compound `Cn1c2ccccc2n2c(=O)c(-c3ccc(Cl)cc3)nnc12`, the GI50 in the assay on RXF 393, in the assay on SNB-75, with KM12, with 786-0, with MOLT-4 and in the assay with HT-29 was > 100 µM (inactive) each time. Besides, the GI50 in the assay with BT-549, in the assay on NCI-H226, in the assay on IGROV-1, in the assay on NCI-H460, in the assay on NCI-H23 and with U-251 was > 100 µM (inactive) throughout. The GI50 in the assay with A498 is > 100 µM (inactive); with SR, > 100 µM (inactive); in the assay with NCI/ADR-RES, > 100 µM (inactive); with ACHN it was > 100 µM (inactive); in the assay with SK-MEL-2, 83.4 µM (inactive).

These data come from ChEMBL document CHEMBL1201862, “PubChem BioAssay data set” (2004).
